Reference: patent publication US20230364025A1, “PROTEIN-RELEASE SYSTEM FOR SUSTAINED RELEASE OF PROTEINS” (THE GOVERNING COUNCIL OF THE UNIVERSITY OF TORONTO, priority 2022, published 2023)

Assays:
[1] = system: anti-sFRP2; test: Bio-layer interferometry binding of immobilized Fc-ligands to anti-sFRP2; conditions: biotinylated peptide immobilized at 100 nM on SAX biosensors
Protocol: (§1) Binding kinetic measurements were performed on the Octet RED96 system (ForteBio, CA) using single-use high-precision streptavidin biosensors (SAX). Assay buffer was defined as 1×PBS comprising 0.05% Tween-20 (PBST). Biotinylated peptides FcL-1 and FcL-2 were immobilized at 100 nM. Non-specific interactions were minimized by including a blocking step using SuperBlock prior to each baseline response. […] A double-referencing experiment was used to assess the binding interactions of Fc-noggin to both peptides. Peptides were immobilized in sample sensors while reference sensors were dipped in assay buffer. For association, the sample and reference sensors were dipped into Fc-noggin. All experiments included one biosensor dipped in assay buffer during association for background normalization.
(§2) Affinity interactions of the modified peptide ligands to different antibodies were evaluated via bio-layer interferometry. […] Dissociation constants between the binding pairs were determined using the Octet Data Analysis Software. […] A heterogeneous 2:1 ligand binding model was used for the evaluation of the equilibrium dissociation constants of the chosen peptide ligands to anti-sFRP2 or Fc-Noggin.

[2] = system: bevacizumab; test: Bio-layer interferometry binding of immobilized Fc-ligands to bevacizumab; conditions: biotinylated peptide immobilized at 100 nM on SAX biosensors
Protocol: as §1, §2

[3] = system: panitumumab; test: Bio-layer interferometry binding of immobilized Fc-ligands to panitumumab; conditions: biotinylated peptide immobilized at 100 nM on SAX biosensors
Protocol: as §1, §2

[4] = biological target: T1, Fc-Noggin (Mus musculus, UniProt P97466); test: Bio-layer interferometry binding of immobilized Fc-ligands to Fc-Noggin; conditions: biotinylated peptide immobilized at 100 nM on SAX biosensors
T1 construct: Fc (immunoglobulin Fc region); purchased R&D systems
Protocol: as §1, §2

[5] = biological target: hlgG1 (Homo sapiens, UniProt P01857); conditions: interacting with hlgG1; Reese et al., 2020; cited from earlier work
[6] = In vitro controlled release of proteins from HAKT-oxime gels, quantified by ELISA; type: physicochemical; conditions: for cumulative release: after 2 days
Protocol: HAKT and HAKT-FcL-1 were dissolved in PBS to yield a final HA content of 12.5 mg/mL with 0 or 100 molar excesses of peptide to protein and mixed with PEGOA4 at 80 mol %. […] Release media was defined as 1×PBS comprising 0.1 wt % bovine serum albumin and Roche cOmplete™ Protease Inhibitor Cocktail (1 tablet/ 10 mL, Roche, Switzerland). Protein release was evaluated by incubating HAKT-oxime gels with 400 μL of release media on an orbital shaker at 37° C. Supernatants were collected and replaced with fresh release media after 2 h, 6 h, 1 d, 2 d, 3 d, 5 d, and 7 d. HAKT-oxime hydrogels were digested after the last time point using 500 IU/mL hyaluronidase in 400 μL of PBS. Fc-Noggin concentrations were evaluated using a mouse Noggin ELISA (RayBiotech).
Subsequently, the wells were washed with 200 μL TPBS (1× PBS with 0.05% Tween 20) four times and blotted dry on paper towels. Standard and analyte samples were added to each well (100 μL) and incubated for 2.5 h at room temperature on an orbital shaker. The wells were then washed as previously described and blotted dry. […] 100 μL of anti-Fc antibody diluted at appropriate concentrations was added to each well and incubated for 1.5 h at room temperature. A solution of 3,3′,5,5′-Tetramethylbenzidine (TMB) was added (100 ul) to each well. […] Then, a stop solution comprising 2N H2SO4 (50 μL) was added to each well and the absorbance was measured at 450 nm. Protein concentration was determined using the linear range in the standard curve. Protein samples were diluted to fit within the linear range.

T1 sequence (P97466 with tags, fused parts or gaps): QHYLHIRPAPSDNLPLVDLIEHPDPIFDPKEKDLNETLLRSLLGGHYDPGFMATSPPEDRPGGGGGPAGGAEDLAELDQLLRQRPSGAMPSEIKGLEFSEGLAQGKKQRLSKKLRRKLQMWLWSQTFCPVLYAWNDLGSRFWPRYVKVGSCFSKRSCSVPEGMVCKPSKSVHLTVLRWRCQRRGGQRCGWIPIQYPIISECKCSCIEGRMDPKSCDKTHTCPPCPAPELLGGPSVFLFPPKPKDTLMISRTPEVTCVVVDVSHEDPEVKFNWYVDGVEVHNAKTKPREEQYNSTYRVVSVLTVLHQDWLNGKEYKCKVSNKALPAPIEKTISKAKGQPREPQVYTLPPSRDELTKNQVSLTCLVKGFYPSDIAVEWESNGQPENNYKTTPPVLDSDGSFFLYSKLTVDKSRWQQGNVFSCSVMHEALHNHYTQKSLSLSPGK
hlgG1, sequence (P01857 1-328 limits assumed): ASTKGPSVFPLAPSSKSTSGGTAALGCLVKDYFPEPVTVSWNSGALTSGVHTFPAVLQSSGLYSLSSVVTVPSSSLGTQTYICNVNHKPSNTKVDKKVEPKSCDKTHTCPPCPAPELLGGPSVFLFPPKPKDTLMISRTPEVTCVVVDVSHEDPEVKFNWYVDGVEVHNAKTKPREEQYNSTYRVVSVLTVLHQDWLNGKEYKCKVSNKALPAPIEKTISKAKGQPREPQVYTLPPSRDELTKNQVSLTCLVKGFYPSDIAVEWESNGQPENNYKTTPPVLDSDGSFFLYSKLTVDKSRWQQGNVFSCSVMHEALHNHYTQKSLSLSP

Row | binding to anti-sFRP2 [1] | binding to bevacizumab [2] | binding to panitumumab [3] | binding to Fc-Noggin [4] | Compound | Kd [5] [µM] | controlled release from HAKT-gel ([6]; FcL-1 at 100-fold molar excess vs no peptide, 37° C., 7 days) | cumulative release ([6]; from HAKT-FcL1-oxime) [%] | cumulative release ([6]; from HAKT-oxime (no peptide))
1 | demonstrated binding only to anti-sFRP2 | demonstrated binding only to anti-sFRP2 | demonstrated binding only to anti-sFRP2 | demonstrated binding only to anti-sFRP2 | (CFHH)2KGAKSKG [FcL2] | – | – | – | –
2 | shown to bind | shown to bind | shown to bind | shown to bind | CC(C)[C@H](NC(=O)[C@H](Cc1c[nH]c2ccccc12)NC(=O)CNC(=O)[C@H](CCCNC(=N)N)NC(=O)[C@H](Cc1c[nH]c2ccccc12)NC(=O)[C@@H](N)Cc1c[nH]cn1)C(=O)NCC(=O)N[C@@H](C)C(=O)N[C@@H](CCCCNC(=O)CCCC[C@@H]1SC[C@@H]2NC(=O)N[C@@H]21)C(=O)N[C@@H](CO)C(=O)N[C@@H](CCCCN)C(=O)NCC(=O)O [FcL1] | – | – | – | –
3 | – | – | – | – | HWRWGV | 14.2 | – | – | –
4 | – | – | – | – | bevacizumab: antibody against VEGF; Research Grade Bevacizumab Biosimilar | – | confirmed controlled release | 60 | approximately 100%
